Experimental data as given in US20230192686A1, “1H-PYRROLO[2,3-B]PYRIDINES AND PREPARATION AND USES THEREOF” (BioSplice Therapeutics, Inc., priority 2021, published 2023).
pEC50: −log10 of the molar value.

Target: recombinant DYRK1A kinase (Homo sapiens, UniProt Q13627)
Assay: DYRK1A kinase assay (Ser/Thr 18 peptide Z-lyte FRET)
Format: biochemical
Details: DYRK1A kinase activity; 15 μM ATP, 4 μM Ser/Thr peptide 18, one hour at room temperature
Outline: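 Recombinant DYRK1A at 0.25 μg/mL was incubated 1 h at room temperature with 15 μM ATP, 4 μM Ser/Thr 18 peptide and compound, in duplicate, 11-point series from 10 μM. Phosphorylation was read by Z-lyte FRET after 1 h protease development, as the coumarin/fluorescein emission ratio converted to % phosphorylation. IC50 by non-linear regression.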

Row | pEC50 | SMILES
1 | 7.74 | COc1ccc2c(-c3ccc4nccn4c3)c[nH]c2n1 [Compound 1666, 6-(6-Methoxy-1H-pyrrolo[2,3-b]pyridin-3-yl)imidazo[1,2-a]pyridine]
2 | 7.19 | COc1ccc2c(-c3ccc4ncnn4c3)c[nH]c2n1 [Compound 1673, 6-(6-Methoxy-1H-pyrrolo[2,3-b]pyridin-3-yl)-[1,2,4]triazolo[1,5-a] pyridine]
3 | 8.15 | COc1ccc2c(-c3ccc4ncccc4c3)c[nH]c2n1 [Compound 1698, 6-(6-Methoxy-1H-pyrrolo[2,3-b]pyridin-3-yl)quinoline]
4 | 6.84 | CCOc1ccc2c(-c3ccc4ncnn4c3)c[nH]c2n1 [Compound 1757, 6-(6-Ethoxy-1H-pyrrolo[2,3-b]pyridin-3-yl)-[1,2,4]triazolo[1,5-a] pyridine]
5 | 8.10 | Cc1nc2c(F)cc(-c3c[nH]c4nc(CO)ccc34)cc2n1C(C)C [Compound 1795, (3-(4-Fluoro-1-isopropyl-2-methyl-1H-benzo[d]imidazol-6-yl)-1H-pyrrolo[2,3-b]pyridin-6-yl)methanol]
6 | 8.52 | O=C(Nc1cccnc1)c1cnn2ccc(-c3c[nH]c4nc(CO)ccc34)cc12 [Compound 1809, 5-(6-(Hydroxymethyl)-1H-pyrrolo[2,3-b]pyridin-3-yl)-N-(pyridin-3-yl) pyrazolo[1,5-a]pyridine-3-carboxamide]
7 | 9.00 | CN1CCC(C(=O)Nc2ccc3c(-c4ccc5nn(C)cc5c4)c[nH]c3n2)CC1 [Compound 1831, 1-Methyl-N-(3-(2-methyl-2H-indazol-5-yl)-1H-pyrrolo[2,3-b]pyridin-6-yl)piperidine-4-carboxamide]
8 | 9.00 | Cc1nc2c(F)cc(-c3c[nH]c4nc(NC(=O)C5CCN(C)CC5)ccc34)cc2n1C(C)C [Compound 1837, N-(3-(4-Fluoro-1-isopropyl-2-methyl-1H-benzo[d]imidazol-6-yl)-1H-pyrrolo[2,3-b]pyridin-6-yl)-1-methylpiperidine-4-carboxamide]
9 | 9.00 | CN1CCC(C(=O)Nc2ccc3c(-c4ccn5ncc(-c6cccnc6)c5c4)c[nH]c3n2)CC1 [Compound 1847, 1-Methyl-N-(3-(3-(pyridin-3-yl)pyrazolo[1,5-a]pyridin-5-yl)-1H-pyrrolo[2,3-b]pyridin-6-yl)piperidine-4-carboxamide]
10 | 7.52 | CN1CCC(C(=O)Nc2ccc3c(-c4ccnc(N5CCN(C)CC5)c4)c[nH]c3n2)CC1 [Compound 1855, 1-Methyl-N-(3-(2-(4-methylpiperazin-1-yl)pyridin-4-yl)-1H-pyrrolo [2,3-b]pyridin-6-yl)piperidine-4-carboxamide]
11 | 8.30 | CN1CCC(C(=O)Nc2ccc3c(-c4ccc5c(c4)C(C)(C)CNC5=O)c[nH]c3n2)CC1 [Compound 1863, N-(3-(4,4-Dimethyl-1-oxo-1,2,3,4-tetrahydroisoquinolin-6-yl)-1H-pyrrolo[2,3-b]pyridin-6-yl)-1-methylpiperidine-4-carboxamide]
12 | 9.00 | CN1CCC(C(=O)Nc2ccc3c(-c4ccc5ncccc5c4)c[nH]c3n2)CC1 [Compound 1866, 1-Methyl-N-(3-(quinolin-6-yl)-1H-pyrrolo[2,3-b]pyridin-6-yl) piperidine-4-carboxamide]
13 | 7.29 | CN1CCN(c2cc(-c3c[nH]c4nc(NC(=O)c5ccncc5)ccc34)ccn2)CC1 [Compound 1897, N-(3-(2-(4-Methylpiperazin-1-yl)pyridin-4-yl)-1H-pyrrolo[2,3-b]pyridin-6-yl)isonicotinamide]
14 | 7.70 | O=C(Nc1ccc2c(-c3ccc4c(c3)C3(CCNCC3)CC4=O)c[nH]c2n1)c1ccncc1 [Compound 1898, N-(3-(3-oxo-2,3-dihydrospiro[indene-1,4′-piperidin]-6-yl)-1H-pyrrolo [2,3-b]pyridin-6-yl)isonicotinamide]
15 | 7.85 | CN1CCC2(CC1)CC(=O)c1ccc(-c3c[nH]c4nc(NC(=O)c5ccncc5)ccc34)cc12 [Compound 1899, N-(3-(1′-methyl-3-oxo-2,3-dihydrospiro[indene-1,4′-piperidin]-6-yl)-1H-pyrrolo[2,3-b]pyridin-6-yl)isonicotinamide]
16 | 9.00 | O=C(Nc1ccc2c(-c3ccc4ncccc4c3)c[nH]c2n1)c1ccncc1 [Compound 1908, N-(3-(Quinolin-6-yl)-1H-pyrrolo[2,3-b]pyridin-6-yl)isonicotinamide]
17 | 8.30 | CN1CCC(Oc2ncnc3ccc(-c4c[nH]c5nc(NC(=O)c6ccncc6)ccc45)cc23)CC1 [Compound 1913, N-(3-(4-((1-Methylpiperidin-4-yl)oxy)quinazolin-6-yl)-1H-pyrrolo [2,3-b]pyridin-6-yl)isonicotinamide]

Further lines, the compound ahead of its results:

Row | SMILES | pEC50
18 | CN1CCN(c2cc(-c3cnc4[nH]cc(-c5ccc6c(c5)C5(CCCCC5)NC6=O)c4c3)ccn2)CC1 [Compound 1398, 6′-(5-(2-(4-Methylpiperazin-1-yl)pyridin-4-yl)-1H-pyrrolo[2,3-b]pyridin-3-yl)spiro[cyclohexane-1,1′-isoindolin]-3′-one] | 8.40
19 | CN1CCN(c2cc(-c3cnc4[nH]cc(-c5ccc6ncccc6c5)c4c3)ccn2)CC1 [Compound 1404, 6-(5-(2-(4-Methylpiperazin-1-yl)pyridin-4-yl)-1H-pyrrolo[2,3-b]pyridin-3-yl)quinoline] | 9.00
20 | Clc1ccc2c(-c3ccc4ncccc4c3)c[nH]c2n1 [Compound 1446, 6-(6-Chloro-1H-pyrrolo[2,3-b]pyridin-3-yl)quinoline] | 7.96
21 | Cc1ccc2c(-c3cc(F)c4nc(C)n(C(C)C)c4c3)c[nH]c2n1 [Compound 1459, 4-Fluoro-1-isopropyl-2-methyl-6-(6-methyl-1H-pyrrolo[2,3-b]pyridin-3-yl)-1H-benzo[d]imidazole] | 8.40
22 | Cc1ccc2c(-c3ccc4c(c3)C(C)(C)NC4=O)c[nH]c2n1 [Compound 1481, 3,3-Dimethyl-5-(6-methyl-1H-pyrrolo[2,3-b]pyridin-3-yl)isoindolin-1-one] | 7.24
23 | Cn1cc2cc(-c3c[nH]c4nc(C5CC5)ccc34)ccc2n1 [Compound 1495, 5-(6-Cyclopropyl-1H-pyrrolo[2,3-b]pyridin-3-yl)-2-methyl-2H-indazole] | 6.98
24 | O=C(NCC(F)F)c1cnc2ccc(-c3c[nH]c4nc(C5CC5)ccc34)cn12 [Compound 1499, 6-(6-Cyclopropyl-1H-pyrrolo[2,3-b]pyridin-3-yl)-N-(2,2-difluoroethyl) imidazo[1,2-a]pyridine-3-carboxamide] | 9.00
25 | c1cn2cc(-c3c[nH]c4nc(C5CC5)ccc34)cnc2n1 [Compound 1500, 6-(6-Cyclopropyl-1H-pyrrolo[2,3-b]pyridin-3-yl)imidazo[1,2-a] pyrimidine] | 8.30
26 | c1nc2ccc(-c3c[nH]c4nc(C5CC5)ccc34)cn2n1 [Compound 1505, 6-(6-Cyclopropyl-1H-pyrrolo[2,3-b]pyridin-3-yl)-[1,2,4]triazolo[1,5-a] pyridine] | 7.00
27 | Cn1nnc2ccc(-c3c[nH]c4nc(C5CC5)ccc34)cc21 [Compound 1507, 6-(6-Cyclopropyl-1H-pyrrolo[2,3-b]pyridin-3-yl)-1-methyl-1H-benzo[d][1,2,3]triazole] | 7.42
28 | CN1CCN(C(=O)c2cnn3ccc(-c4c[nH]c5nc(C6CC6)ccc45)cc23)CC1 [Compound 1517, (5-(6-Cyclopropyl-1H-pyrrolo[2,3-b]pyridin-3-yl)pyrazolo[1,5-a]pyridin-3-yl)(4-methylpiperazin-1-yl)methanone] | 7.18
29 | COc1ncnc2ccc(-c3c[nH]c4nc(C5CC5)ccc34)cc12 [Compound 1533, 6-(6-Cyclopropyl-1H-pyrrolo[2,3-b]pyridin-3-yl)-4-methoxyquinazoline] | 6.64
30 | CN1CCN(c2ncnc3ccc(-c4c[nH]c5nc(C6CC6)ccc45)cc23)CC1 [Compound 1534, 6-(6-Cyclopropyl-1H-pyrrolo[2,3-b]pyridin-3-yl)-4-(4-methylpiperazin-1-yl)quinazoline] | 7.92
31 | Cc1nc2c(F)cc(-c3c[nH]c4nc(C5CCC5)ccc34)cc2n1C(C)C [Compound 1543, 6-(6-Cyclobutyl-1H-pyrrolo[2,3-b]pyridin-3-yl)-4-fluoro-1-isopropyl-2-methyl-1H-benzo[d]imidazole] | 7.37
32 | Cc1nc2cnc(-c3c[nH]c4nc(C5CCC5)ccc34)cc2n1C(C)C [Compound 1546, 6-(6-Cyclobutyl-1H-pyrrolo[2,3-b]pyridin-3-yl)-1-isopropyl-2-methyl-1H-imidazo[4,5-c]pyridine] | 5.69
33 | c1nc2ccc(-c3c[nH]c4nc(C5CCC5)ccc34)cn2n1 [Compound 1547, 6-(6-Cyclobutyl-1H-pyrrolo[2,3-b]pyridin-3-yl)-[1,2,4]triazolo[1,5-a] pyridine] | 6.92
34 | O=C(NCC(F)F)c1cnn2ccc(-c3c[nH]c4nc(C5CCC5)ccc34)cc12 [Compound 1554, 5-(6-Cyclobutyl-1H-pyrrolo[2,3-b]pyridin-3-yl)-N-(2,2-difluoroethyl) pyrazolo[1,5-a]pyridine-3-carboxamide] | 8.10
35 | CN1CCC(NC(=O)c2cnn3ccc(-c4c[nH]c5nc(C6CCC6)ccc45)cc23)CC1 [Compound 1556, 5-(6-Cyclobutyl-1H-pyrrolo[2,3-b]pyridin-3-yl)-N-(1-methylpiperidin-4-yl)pyrazolo[1,5-a]pyridine-3-carboxamide] | 8.30
36 | O=C(c1cnn2ccc(-c3c[nH]c4nc(C5CCC5)ccc34)cc12)N1CCCCC1 [Compound 1558, (5-(6-Cyclobutyl-1H-pyrrolo[2,3-b]pyridin-3-yl)pyrazolo[1,5-a]pyridin-3-yl)(piperidin-1-yl)methanone] | 6.54
37 | O=C1NCCOc2cc(-c3c[nH]c4nc(C5CCC5)ccc34)ccc21 [Compound 1571, 8-(6-Cyclobutyl-1H-pyrrolo[2,3-b]pyridin-3-yl)-3,4-dihydrobenzo[f] [1,4]oxazepin-5(2H)-one] | 7.30
38 | CN1CCC(Oc2ncnc3ccc(-c4c[nH]c5nc(C6CCC6)ccc45)cc23)CC1 [Compound 1577, 6-(6-Cyclobutyl-1H-pyrrolo[2,3-b]pyridin-3-yl)-4-((1-methylpiperidin-4-yl)oxy)quinazoline] | 6.67
